In patent US20260167623A1 (NIKANG THERAPEUTICS, INC., priority 2022, published 2026) one finds IC50 and DC50 data, which are given here for 7 compounds.

pIC50: −log10 of the molar value.

The target in assay [1] is T1, CDK2 (Homo sapiens, UniProt P24941).
T1 construct: High-Throughput Measurement of Cellular Endogenous CDK2; endogenous in cells; host or cells: OVCAR3
The assay can be described thus: Inhibition of CDK2: phospho-Rb (S807/811) HTRF measurement in OVCAR3 cells, 24 h. In kind it is cell-based. The following applies: 24 h compound treatment, read-out: pRB_OVCAR3_24h. A digest of the protocol: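 OVCAR3 cells, seeded overnight, were exposed to compounds at 0.3 to 10,000 nM for 24 h, then lysed. Rb S807/811 phosphorylation read by HTRF (665/620 nm ratio) after 4 h detection at room temperature; data normalized to DMSO and IC50 from four-parameter logistic fit.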

The target of assay [2] is T1, CDK2. The assay can be described thus: High-throughput HTRF measurement of cellular endogenous CDK2 level (degradation, DC50/Dmax) in OVCAR3 cells, 6 h. The class given is cell-based. As to conditions: 6 h compound treatment, HTRF total CDK2, read-out: DC50_OVCAR3_6h. A digest of the protocol:
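OVCAR3 cells were treated overnight after seeding with compounds at 0.03–1,000 nM for 6 h, then lysed. Total CDK2 was quantified by HTRF (d2- and Eu-cryptate anti-CDK2 antibodies, […] ratio) after overnight incubation at room temperature. Data normalized to DMSO (0%) and lysis buffer (100% degradation); DC50 from four-parameter logistic fit.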

Turning to `Cn1nc(N2CCC(=O)NC2=O)c2ccc(C3CCN(CC4(O)CCN(c5cc(S(=O)(=O)N6CCC(Nc7ncc(Cl)cn7)CC6)ccc5C#N)CC4)CC3)cc21` [Example 214, 4-((4-((5-chloropyrimidin-2-yl)amino)piperidin-1-yl)sulfonyl)-2-(4-((4-(3-(2,4-dioxotetrahydropyrimidin-1(2H)-yl)-1-methyl-1H-indazol-6-yl)piperidin-1-yl)methyl)-4-hydroxypiperidin-1-yl)benzonitrile], the pIC50 in assay [1] was 7.00 to 9.00. In addition, the DC50 in assay [2] is 10 to 100 nM.
For `Cn1c(=O)n(C2CCC(=O)NC2=O)c2ccc(F)c(C3CCN(CC4CCN(c5cc(S(=O)(=O)N6CCC(Nc7ncc(Cl)cn7)CC6)ccc5C#N)CC4)CC3)c21` (centres unmarked) [Example 216, 4-((4-((5-chloropyrimidin-2-yl)amino)piperidin-1-yl)sulfonyl)-2-(4-((4-(1-(2,6-dioxopiperidin-3-yl)-5-fluoro-3-methyl-2-oxo-2,3-dihydro-1H-benzo[d]imidazol-4-yl)piperidin-1-yl)methyl)piperidin-1-yl)benzonitrile], in assay [1], the pIC50 was 7.00 to 9.00. For the same compound, the DC50 in assay [2] was in the range of 10 to 100 nM.
Regarding `Cn1c(=O)n(C2CCC(=O)NC2=O)c2cccc(N3CCN(CC4CCN(c5cc(S(=O)(=O)N6CCC(Nc7ncc(C(F)(F)F)cn7)CC6)ccc5C#N)CC4)CC3)c21` (centres unmarked) [Example 217, 2-(4-((4-(1-(2,6-dioxopiperidin-3-yl)-3-methyl-2-oxo-2,3-dihydro-1H-benzo[d]imidazol-4-yl)piperazin-1-yl)methyl)piperidin-1-yl)-4-((4-((5-(trifluoromethyl)pyrimidin-2-yl)amino)piperidin-1-yl)sulfonyl)benzonitrile], the pIC50 in assay [1] is 7.00 to 9.00. For the same compound, the DC50 in assay [2] lay within 10 to 100 nM.
For the compound `Cn1c(=O)n(C2CCC(=O)NC2=O)c2c(F)ccc(C3CCN(CC4CCN(c5cc(S(=O)(=O)N6CCC(Nc7ncc(Cl)cn7)CC6)ccc5C#N)CC4)CC3)c21` (centres unmarked) [Example 220, 4-((4-((5-chloropyrimidin-2-yl)amino)piperidin-1-yl)sulfonyl)-2-(4-((4-(1-(2,6-dioxopiperidin-3-yl)-7-fluoro-3-methyl-2-oxo-2,3-dihydro-1H-benzo[d]imidazol-4-yl)piperidin-1-yl)methyl)piperidin-1-yl)benzonitrile], the pIC50 in assay [1] is 7.00 to 9.00. Further, the DC50 in assay [2] is 10 to 100 nM.
Taken in the same sequence, the figures for `O=C1CCN(c2noc3cc(C4CCN(CC5CCN(c6cccc(S(=O)(=O)N7CCC(Nc8ncc(Cl)cn8)CC7)c6)CC5)CC4)ccc23)C(=O)N1` [Example 221, 1-(6-(1-((1-(3-((4-((5-chloropyrimidin-2-yl)amino)piperidin-1-yl)sulfonyl)phenyl)piperidin-4-yl)methyl)piperidin-4-yl)benzo[d]isoxazol-3-yl)dihydropyrimidine-2,4(1H,3H)-dione] were 7.00 to 9.00 and 1 to 10 nM.
Take `O=C1CCN(c2noc3cc(C4CCN(CC5CCN(c6cccc(S(=O)(=O)N7CCC(Nc8ncc(C(F)(F)F)cn8)CC7)c6)CC5)CC4)ccc23)C(=O)N1` [Example 222, 1-(6-(1-((1-(3-((4-((5-(trifluoromethyl)pyrimidin-2-yl)amino)piperidin-1-yl)sulfonyl)phenyl)piperidin-4-yl)methyl)piperidin-4-yl)benzo[d]isoxazol-3-yl)dihydropyrimidine-2,4(1H,3H)-dione]: in assay [1], the pIC50 is 7.00 to 9.00. The DC50 in assay [2] lay within 1 to 10 nM.
Taken in the same sequence, the figures for `Cn1nc(N2CCC(=O)NC2=O)c2ccc(C3CCC(CN4CCN(c5cccc(S(=O)(=O)N6CCC(Nc7ncc(Cl)cn7)CC6)c5)CC4)CC3)cc21` (centres unmarked) [Example 224, 1-(6-(4-((4-(3-((4-((5-chloropyrimidin-2-yl)amino)piperidin-1-yl)sulfonyl)phenyl)piperazin-1-yl)methyl)cyclohexyl)-1-methyl-1H-indazol-3-yl)dihydropyrimidine-2,4(1H,3H)-dione] were 7.00 to 9.00 and 10 to 100 nM.
